Experimental findings from patent US20260146044A1, “AROMATIC COMPOUND, PHARMACEUTICAL COMPOSITION CONTAINING SAME, AND USE THEREOF” (Increland, priority 2023, published 2026) are described below.

Like-named read-outs stand apart in the source and are kept apart here.

Data set [1] can be described thus: Pharmacokinetic experiment on SD rats (iv and ig). Type of data set: in vivo. Particulars: Sprague-Dawley, rat, plasma; for Cmax: read-out: Peak plasma concentration Cmax; for bioavailability: ig 5.00 mg/kg vs iv 1.00 mg/kg, read-out: Oral bioavailability Fobs (%). Here is the method: Pharmacokinetic experiment on SD rats: in this experiment, two administration modes: oral intragastric administration and tail vein injection were selected. Each of the compounds of the present patented invention was administered at an oral dose of 5 mg/kg at an administration volume of 10 mL/kg. […] Appropriate amounts of Solutol and H2O were proportionally added sequentially, and fully mixed ultrasonically by vortexing, to prepare a clear drug solution at 0.5 mg/mL. ICL004-protodrug was administered by intravenous injection at a dose of 1 mg/kg at an administration volume of 10 mL/kg. Right before use, an appropriate amount of the drug was accurately weighed, to prepare a final volume of 20% PEG 400 and 80% Saline. Appropriate amounts of PEG 400 and Saline were proportionally added sequentially, and fully mixed ultrasonically by vortexing, to prepare a clear drug solution at 0.1 mg/mL.
6 SD rats, each with body weight of 180-220 g, were randomly grouped into 2 groups. After fasting but with free access to water overnight, each […] in the first group was administered by gavage. 200 μL of blood was sampled from its eye socket into an anticoagulant tube respectively at each time point of 15 min, 30 min, 1 h, 2 h, 4 h, 6 h, 8 h, and 24 h after administration. Within one h, each of the blood samples was centrifuged at 10,000 rpm at 4° C. for 20 min (the sample was stored on an ice box prior to the centrifugation), and the supernatant (i.e., the plasma) was stored in a refrigerator at −20° C. for LC-MS/MS analysis. 200 μL of blood was sampled from the eye socket of each […] in the second group into an anticoagulant tube respectively at each time point of 5 min, 15 min, 30 min, 1 h, 2 h, 4 h, 8 h, and 24 h after administration by intravenous injection. Within one h, each of the blood samples was centrifuged at 10,000 rpm at 4° C. for 20 min (the blood sample was stored on an ice box prior to the centrifugation), and the supernatant, i.e., the plasma, was stored in a refrigerator at −20° C. for LC-MS/MS analysis.

For data set [2], the target named is T1, IRAK4 protein (Homo sapiens, UniProt Q9NWZ3).
T1 construct: Effects of Compounds on IRAK4 Protein Degradation in THP1 Cells; endogenous in cells; host or cells: THP-1 cells
T1 sequence (Q9NWZ3 1-460): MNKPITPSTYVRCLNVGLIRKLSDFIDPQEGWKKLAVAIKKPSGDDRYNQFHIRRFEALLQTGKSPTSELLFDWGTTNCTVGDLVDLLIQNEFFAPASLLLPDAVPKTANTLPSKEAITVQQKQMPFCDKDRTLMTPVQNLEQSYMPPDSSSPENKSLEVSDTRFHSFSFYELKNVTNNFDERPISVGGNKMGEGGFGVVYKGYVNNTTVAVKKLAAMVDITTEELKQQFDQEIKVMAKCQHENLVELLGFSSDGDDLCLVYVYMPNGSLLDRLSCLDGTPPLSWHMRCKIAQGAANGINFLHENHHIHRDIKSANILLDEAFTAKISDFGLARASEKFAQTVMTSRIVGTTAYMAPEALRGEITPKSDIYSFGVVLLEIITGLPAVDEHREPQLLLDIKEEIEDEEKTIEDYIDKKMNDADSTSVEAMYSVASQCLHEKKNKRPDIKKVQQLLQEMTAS
Nature of the data set: IRAK4 protein degradation in THP1 cells (Western blot). The class given is cell-based. Particulars: 24 h. Here is the method:
THP-1 cells were inoculated into a 96-well cell culture plate, with 5×10^4 cells and 100 μL of a culture medium per well. The cell culture plate was cultured in an incubator with 5% CO2 at 37° C. overnight. 100 nl of a well-prepared compound stock solution and a compound-free DMSO stock solution were respectively added to cells per well. The cell culture plate was incubated in an incubator with 5% CO2 at 37° C. for 24 h. One protease inhibitor tablet and one phosphatase inhibitor tablet were added to 20 mL of a cell lysis buffer, and they were gently mixed until complete dissolution. DTT at a final concentration of 200 mM was added to a 4× sample preparation buffer to prepare a 4× sample preparation working solution. 20× electrophoretic buffer was diluted to 1× with ultrapure water. 20× transfer buffer was diluted to 1× with ultrapure water, and 20% methanol was added. […] IRAK4 protein primary antibody working solution: 20 μl of IRAK4 antibody added to 20 mL of a blocking solution; β-Actin primary antibody working solution: 2 μl of beta-actin (13E5) Rabbit mAb antibody added to 20 mL of a blocking solution. IRAK4 protein secondary antibody working solution: Donkey Anti-Goat IgG H&L (HRP) diluted 1/5,000 in a blocking solution; 3-Actin secondary antibody working solution: Anti-rabbit IgG, RP-linked antibody diluted 1/10,000 in a blocking solution. The cell culture plate was centrifuged at 3,000 rpm for 3 min, and most of the culture medium was carefully pipetted. The cell plate was inverted, and centrifuged at 300 rpm for 30 s. 45 μL of a lysis buffer was added to each well. The mixture was shaken at 300 rpm for 30 s, allowed to stand on ice for 30 min, and pipetted 30 times at 20 min. 6 μL of 4× sample preparation working solution was added to 18 μL of protein supernatant for sample preparation, and the mixture was heated at 70° C. for 10 min. Remaining protein samples were stored at −80° C. In the precast gel, 8 μl of sample was loaded into each well for electrophoresis at a constant voltage of 120 V for about 60 min, transferred using a PVDF membrane at a constant current of 300 mA for 1 h, then blocked with a blocking solution at room temperature for 1 h, and incubated in a primary antibody working solution at 4° C. overnight. The membrane was washed with 1×TBST buffer for 3×10 min. The secondary antibody working solution was incubated at room temperature for 1 h. The membrane was washed with 1×TBST buffer for 3×10 min, and a chromogenic solution was used for exposure and color development.
Background: In western blotting, separated proteins are transferred to a membrane and probed.

Take `Cc1nn(C2CCC(=O)NC2=O)c2cccc(N3CC4CN(C[C@H]5CC[C@H](n6cc7cc(NC(=O)c8cnn9cccnc89)c(N8CCOCC8)cc7n6)CC5)CC4C3)c12` (stereo partly shown) [TM-57]: in data set [1] (iv, 1.00 mg/kg), the AUC worked out at 499 ng·h/mL, the area under the curve AUC(0-inf) worked out at 526 ng·h/mL and the Cmax is 225 ng/mL. The bioavailability in data set [1] (po) amounted to 46.6%. In data set [1] (po, ig, 5.00 mg/kg), the AUC came to 580 ng·h/mL, the area under the curve AUC(0-inf) came out at 1230 ng·h/mL and the Cmax is 79.7 ng/mL. Besides, in data set [2], it took 3.12 nM to reach half-maximal degradation (DC50).
`Cc1nn(C2CCC(=O)NC2=O)c2cncc(N3CCN(C[C@H]4CC[C@H](n5cc6cc(NC(=O)c7cnn8cccnc78)c(N7CCO[C@H](C)C7)cc6n5)CC4)CC3)c12` (stereo partly shown) [TM-109]: in data set [1] (iv, 1.00 mg/kg), the AUC was 537 ng·h/mL, the AUC(0-inf) turned out to be 776 ng·h/mL and the Cmax worked out at 101 ng/mL. Besides, in data set [1] (po), the bioavailability is 7.87%. For the same molecule, in data set [1] (po, ig, 5.00 mg/kg), the exposure (AUC) is 268 ng·h/mL, the total exposure AUC(0-inf) amounted to 306 ng·h/mL and the Cmax is 23 ng/mL. Moreover, the DC50 in data set [2] was 4.67 nM.

Usually AUC stands for the area under the concentration-time curve, a measure of exposure. A higher AUC goes with more exposure. As a reminder, the AUC(0-inf) is the area under the concentration-time curve extrapolated to infinity. Read a low AUC(0-inf) as less exposure. A word on the bioavailability: it is the share of a dose that reaches the circulation, judged against a reference dose that is usually intravenous. In general, DC50 refers to the concentration at which degradation of the target reaches its halfway point.
